Source: patent US20130274127A1, “GENE EXPRESSION MARKERS FOR PREDICTION OF RESPONSE TO PHOSPHOINOSITIDE 3-KINASE INHIBITORS” (GENOMIC HEALTH, INC., priority 2012, published 2013)

What was measured:
Test in all cases: NCI-60 in vitro drug sensitivity testing (SRB)
Format in all cases: cell-based
[1] = system: HCT-116; conditions: Homo sapiens, HCT-116, read-out: GDC-0941 GI50
From the text: (§1) Cell lines used in this study were obtained from the National Cancer Institute Developmental Therapeutics program (NCI DTP) and were maintained in RPMI 1640 media (Invitrogen, Grand Island, N.Y.) containing 10% Fetal Bovine Serum (ATCC, Manassas, Va.). Cell lines were used within six months of receipt from the NCI DTP, abrogating the need for reauthentication.
(§2) 14, 2010 and Aug. 9, 2010.

[2] = system: HL-60(TB); conditions: Homo sapiens, read-out: GDC-0941 GI50
From the text: as §1, §2

[3] = system: 786-0; conditions: Homo sapiens, 786-0, read-out: GDC-0941 GI50
From the text: as §1, §2

[4] = system: IGROV1; conditions: Homo sapiens, IGROV-1, read-out: GDC-0941 GI50
From the text: as §1, §2

[5] = system: ACHN; conditions: Homo sapiens, read-out: GDC-0941 GI50
From the text: as §1, §2

[6] = system: SK-MEL-2; conditions: Homo sapiens, SK-MEL-2, read-out: GDC-0941 GI50
From the text: as §1, §2

[7] = system: U251; conditions: Homo sapiens, U-251, read-out: GDC-0941 GI50
From the text: as §1, §2

[8] = system: M14; conditions: Homo sapiens, M14, read-out: GDC-0941 GI50
From the text: as §1, §2

[9] = system: BT-549; conditions: Homo sapiens, BT-549, read-out: GDC-0941 GI50
From the text: as §1, §2

[10] = system: A549/ATCC; conditions: Homo sapiens, read-out: GDC-0941 GI50
From the text: as §1, §2

[11] = system: MOLT-4; conditions: Homo sapiens, MOLT-4, read-out: GDC-0941 GI50
From the text: as §1, §2

[12] = system: UACC-62; conditions: Homo sapiens, UACC-62, read-out: GDC-0941 GI50
From the text: as §1, §2

[13] = system: CCRF-CEM; conditions: Homo sapiens, read-out: GDC-0941 GI50
From the text: as §1, §2

[14] = system: MDA-MB-468; conditions: Homo sapiens, MDA-MB-468, read-out: GDC-0941 GI50
From the text: as §1, §2

[15] = system: T-47D; conditions: Homo sapiens, T47D, read-out: GDC-0941 GI50
From the text: as §1, §2

[16] = system: PC-3; conditions: Homo sapiens, PC-3, read-out: GDC-0941 GI50
From the text: as §1, §2

[17] = system: SK-MEL-28; conditions: Homo sapiens, SK-MEL-28, read-out: GDC-0941 GI50
From the text: as §1, §2

[18] = system: SNB-75; conditions: Homo sapiens, SNB-75, read-out: GDC-0941 GI50
From the text: as §1, §2

[19] = system: SN12C; conditions: Homo sapiens, read-out: GDC-0941 GI50
From the text: as §1, §2

[20] = system: NCI-H226; conditions: Homo sapiens, NCI-H226, read-out: GDC-0941 GI50
From the text: as §1, §2

[21] = system: DU-145; conditions: Homo sapiens, DU-145, read-out: GDC-0941 GI50
From the text: as §1, §2

[22] = system: OVCAR-3; conditions: Homo sapiens, OVCAR-3, read-out: GDC-0941 GI50
From the text: as §1, §2

[23] = system: SW-620; conditions: Homo sapiens, SW-620, read-out: GDC-0941 GI50
From the text: as §1, §2

[24] = system: SR; conditions: Homo sapiens, read-out: GDC-0941 GI50
From the text: as §1, §2

[25] = system: HS 578T; conditions: Homo sapiens, read-out: GDC-0941 GI50
From the text: as §1, §2

[26] = system: NCI-H23; conditions: Homo sapiens, NCI-H23, read-out: GDC-0941 GI50
From the text: as §1, §2

[27] = system: COLO 205; conditions: Homo sapiens, COLO 205, read-out: GDC-0941 GI50
From the text: as §1, §2

[28] = system: UO-31; conditions: Homo sapiens, UO-31, read-out: GDC-0941 GI50
From the text: as §1, §2

[29] = system: OVCAR-8; conditions: Homo sapiens, OVCAR-8, read-out: GDC-0941 GI50
From the text: as §1, §2

[30] = system: SNB-19; conditions: Homo sapiens, SNB-19, read-out: GDC-0941 GI50
From the text: as §1, §2

[31] = system: HOP-92; conditions: Homo sapiens, HOP-92, read-out: GDC-0941 GI50
From the text: as §1, §2

CS(=O)(=O)N1CCN(Cc2cc3nc(-c4cccc5[nH]ncc45)nc(N4CCOCC4)c3s2)CC1 [GDC-0941] was tested, and the GI50 [1] was 692 nM, the GI50 [2] was 58 nM and the GI50 [3] was 295 nM. The GI50 [4] was 26 nM, the GI50 [5] was 162 nM and the GI50 [6] was 759 nM. For the same compound, the GI50 [7] was 1050 nM, the GI50 [8] was 871 nM and the GI50 [9] was 32 nM. For the same compound, the GI50 [10] was 251 nM, the GI50 [11] was 155 nM and the GI50 [12] was 112 nM. The GI50 [13] was 2340 nM, the GI50 [14] was 110 nM and the GI50 [15] was 11 nM. The GI50 [16] was 138 nM, the GI50 [17] was 617 nM and the GI50 [18] was 14 nM. It also gave a GI50 [19] of 229 nM, a GI50 [20] of 1230 nM and a GI50 [21] of 355 nM. It also gave a GI50 [22] of 126 nM, a GI50 [23] of 832 nM and a GI50 [24] of 1290 nM. For the same compound, the GI50 [25] was 71 nM, the GI50 [26] was 2290 nM and the GI50 [27] was 269 nM. It also gave a GI50 [28] of 78 nM, a GI50 [29] of 646 nM and a GI50 [30] of 1150 nM. It also gave a GI50 [31] of 83 nM.
